In one assay the test system is MDA-MB-231. The assay can be described thus: Wound healing assay, MDA-MB-231. Format: cell-based. Conditions: 4 μM, 72 h, 1% FBS. As for the experimental part: Figure S20. Wound healing assay with iDual and ricolinostat. (A) MDA-MB-231 and (B) DU-145 […]
and ricolinostat for 72 h cells grown in relative medium with (1%) FBS conditions. Wound healing is photographed with Nikon Eclipse TS 100 microscope. Wound/healed area is quantified using Image […]

A further assay concerns the target T1, HDAC8 (Homo sapiens, UniProt Q9BY41).
T1 construct: endogenous in cells; host or cells: THP-1
T1 sequence (Q9BY41 1-377): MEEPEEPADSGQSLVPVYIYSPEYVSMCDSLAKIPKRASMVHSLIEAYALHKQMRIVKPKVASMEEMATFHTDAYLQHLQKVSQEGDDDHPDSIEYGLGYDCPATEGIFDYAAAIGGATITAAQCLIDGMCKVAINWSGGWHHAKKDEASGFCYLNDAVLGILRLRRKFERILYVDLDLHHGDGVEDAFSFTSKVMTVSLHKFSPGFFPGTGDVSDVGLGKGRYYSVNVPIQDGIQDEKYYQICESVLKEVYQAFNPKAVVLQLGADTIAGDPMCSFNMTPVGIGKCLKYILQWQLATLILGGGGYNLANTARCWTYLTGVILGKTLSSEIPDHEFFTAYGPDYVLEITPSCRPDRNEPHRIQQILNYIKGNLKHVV
The assay can be described thus: Cellular thermal shift assay (CETSA), HDAC8. Format: cell-based. Conditions: THP-1 cells, 1 h; 4 μM (methods, Figure 2), Figure S14 legend 500 nM. On the procedure:
THP-1 cells, 1 × 10^7 cells at a density of 1 × 10^6 cells/mL, were treated with 4 μM of test compounds (1 h, 37 °C, 5% CO2). Cells were centrifuged, and the pellet was resuspended with 1 × Phosphate Buffer Saline (Gibco, Grand Island, NY, USA, #10010023) containing 1 × Protease Inhibitor Cocktail (Cell Signaling Technology, Beverly, MA, USA, #5871) and 1 mM phenylmethylsulfonyl fluoride (PMSF, Sigma Aldrich, St. Louis, MO, USA, #10837091001). The suspension volume was divided equally and heated for 3 min at 43–64 °C in a T100 Thermal Cycler (Bio-rad, Hercules, CA, USA). For protein extraction, cells were snap-frozen using liquid nitrogen, thawed twice (25 °C, 1 min), then centrifuged (20,000× g, 15 min, 4 °C). Following centrifugation, protein containing supernatants were denatured at 70 °C for 10 min and loaded on SDS-PAGE gels (Bio-Rad, Hercules, CA, USA, 161-0317). […] The signal was detected with BIORAD Chemi-Doc XRS+ System and by using Immobilon Forte Western HRP Substrate (WBLUF0500).

The target of a further assay is T2, N-ter-GST-HDAC-6 (Homo sapiens, UniProt Q9UBN7).
T2 construct: GST (N); purchased BPS Bioscience 50006
T2 sequence (Q9UBN7 1-1215): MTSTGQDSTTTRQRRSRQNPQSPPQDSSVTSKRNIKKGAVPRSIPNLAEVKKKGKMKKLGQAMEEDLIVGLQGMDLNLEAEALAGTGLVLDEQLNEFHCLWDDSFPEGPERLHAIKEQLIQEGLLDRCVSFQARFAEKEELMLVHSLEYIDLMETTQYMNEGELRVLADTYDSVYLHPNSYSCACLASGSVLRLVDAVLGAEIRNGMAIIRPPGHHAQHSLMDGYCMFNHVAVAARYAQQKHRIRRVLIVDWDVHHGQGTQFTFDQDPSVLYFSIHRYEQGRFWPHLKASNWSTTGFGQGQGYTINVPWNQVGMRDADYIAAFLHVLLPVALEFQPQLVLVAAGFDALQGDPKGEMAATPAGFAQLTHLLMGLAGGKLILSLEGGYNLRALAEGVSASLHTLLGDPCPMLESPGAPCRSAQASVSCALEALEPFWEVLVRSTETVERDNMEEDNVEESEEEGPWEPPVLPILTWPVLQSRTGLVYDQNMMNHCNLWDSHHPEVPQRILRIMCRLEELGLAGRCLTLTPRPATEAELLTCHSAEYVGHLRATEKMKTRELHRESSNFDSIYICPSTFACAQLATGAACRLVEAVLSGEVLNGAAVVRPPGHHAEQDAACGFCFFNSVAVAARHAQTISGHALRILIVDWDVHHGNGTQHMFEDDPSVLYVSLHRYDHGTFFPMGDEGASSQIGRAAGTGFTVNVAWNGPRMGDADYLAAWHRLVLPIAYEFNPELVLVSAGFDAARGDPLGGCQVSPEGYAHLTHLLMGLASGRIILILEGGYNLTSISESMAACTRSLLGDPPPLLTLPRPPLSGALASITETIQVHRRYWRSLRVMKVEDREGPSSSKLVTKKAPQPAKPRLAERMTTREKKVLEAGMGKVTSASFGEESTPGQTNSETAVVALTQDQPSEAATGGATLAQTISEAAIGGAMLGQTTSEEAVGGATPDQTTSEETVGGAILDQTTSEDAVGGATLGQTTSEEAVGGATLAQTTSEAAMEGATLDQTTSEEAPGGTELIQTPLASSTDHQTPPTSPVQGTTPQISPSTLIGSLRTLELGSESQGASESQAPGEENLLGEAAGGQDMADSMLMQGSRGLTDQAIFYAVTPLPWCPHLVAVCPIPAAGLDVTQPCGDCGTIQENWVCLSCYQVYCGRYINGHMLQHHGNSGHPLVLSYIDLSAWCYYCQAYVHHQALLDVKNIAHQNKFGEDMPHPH
The assay can be described thus: HDAC-Glo I/II enzyme assay, HDAC6. It counts as biochemical.

Some results are limits rather than exact numbers.

Experimental findings from PMC9737972, “Dual LSD1 and HDAC6 Inhibition Induces Doxorubicin Sensitivity in Acute Myeloid Leukemia Cells” (Cancers, 2022) are described below.

Take `O=C(NO)c1ccc(CN2CCC(CN[C@@H]3C[C@H]3c3ccccc3)CC2)cc1` (relative stereo) [iDual]: in the assay with MDA-MB-231, the “wound healing capacity MDA-MB-231” value was “slowed down”. Besides, the “thermal stabilization of HDAC8 (CETSA)” value on HDAC8 is on record as “not significantly stabilized”.

Consider `O=C(NO)c1ccc(CN2CCC(CNC3(c4ccccc4)CC3)CC2)cc1` [iHDAC6], for which the HDAC6/HDAC1 isoform selectivity on N-ter-GST-HDAC-6 was > 30 fold. The half-maximal inhibitory concentration (IC50) (usually the concentration at which inhibition is half-maximal) on N-ter-GST-HDAC-6 (± standard error, three independent measurements) is 230 ± 20 nM.
